The record followed here is a melting point compilation (Tetko et al.).

SMILES strings stand for the structures.

The term melting point denotes the temperature, or range, at which the solid turns liquid.

For the compound `CCCCCCCCNC1(NC(=O)c2ccccc2-c2ccc(CCCCCCCC)cc2)CC(CCCC)=C(NC(=O)c2ccccc2-c2ccc(CCCCCCCC)cc2)C2=C1C(=O)c1ccccc1C2=O` (centres undefined), the melting point is 94 to 95 °C.

Regarding `COc1cc(OC)c(/C=C/C(c2ccc(OC)c(NCCCC(=O)O)c2)S(=O)(=O)C(/C=C/c2c(OC)cc(OC)cc2OC)c2ccc(OC)c(NCCCC(=O)O)c2)c(OC)c1` (centres undefined), the melting point lay in the range of 86 to 88 °C.

Turning to `CS(=O)(=O)C1CCN(Cc2ccc(COc3cccc4c3CN(C3CCC(=O)NC3=O)C4=O)cc2)CC1` (centres undefined), the melting point fell in the range of 173 to 175 °C.

In turn, `CC1CC2C3CCC4=CC(=O)C=CC4(C)C3(Cl)C(O)CC2(C)C1(O)C(=O)CO` (centres undefined) had a melting point of 217 to 222 °C.

As for `CC(C)[C@H](NC(=O)N1CCN(c2ccccc2)CC1)C(=O)N[C@@H](Cc1ccccc1)[C@@H](O)[C@H](O)[C@H](Cc1ccccc1)NC(=O)[C@@H](NC(=O)N1CCN(c2ccccc2)CC1)C(C)C`, the melting point fell in the range of 165 to 166 °C.

Turning to `C=C(C)C(=O)Nc1ccc2ncnc(Nc3cccc(Br)c3)c2c1`, the melting point is 244 to 245 °C.

In turn, `CCCCCCCCCCCCN1C(=O)NC2(CC(C)(C)N(CC(O)COc3ccc(C(C)(C)c4ccc(OCC(O)CN5C(C)(C)CC6(CC5(C)C)NC(=O)N(CCCCCCCCCCCC)C6=O)cc4)cc3)C(C)(C)C2)C1=O` (centres undefined) showed a melting point of 159 to 161 °C.

The compound `COc1cc(OC)c(C=CC(c2ccc(OC)c(NC(=O)CCl)c2)S(=O)(=O)C(C=Cc2c(OC)cc(OC)cc2OC)c2ccc(OC)c(NC(=O)CCl)c2)c(OC)c1` (centres undefined) had a melting point of 163 to 165 °C.

In turn, `CCCCCCCCCCCCOC(CCCCCCCCCCC)CCOC1C(NC(C)=O)C(OCC2OC(C(=O)O)C(NC(=O)CC(O)CCCCCCCCCCC)C(OCCC(O)CCCCCCCCCCC)C2O)OC(CO)C1OP(=O)(O)O` (centres undefined) gave a melting point of 179 to 181 °C.

Compound `O=CCCCCCCOc1ccc(OCc2ccccc2)cc1` displayed a melting point of 65 to 67 °C.

As for `O=C(OCC(OC(=O)C1CCCCC1)C(OC(=O)C1CCCCC1)C(OC(=O)C1CCCCC1)C(COC(=O)C1CCCCC1)OC(=O)C1CCCCC1)C1CCCCC1` (centres undefined), the melting point was 135 to 140 °C.

For `CCCCCCCCCCCCCCCC(=O)OCC(CSCC(NC(=O)OCc1cccc2c1Cc1ccccc1-2)C(=O)O)OC(=O)CCCCCCCCCCCCCCC` (mixture of isomers), the melting point was in the range of 82 to 84 °C.

For the compound `O=[N+]([O-])c1ccc2cn[nH]c(=S)c2c1`, the melting point fell in the range of 233 to 234 °C.

Regarding `CCO[Si](CCCCOc1ccc(S(=O)(=O)c2ccc(OCCCC[Si](OCC)(OCC)OCC)cc2Cc2ccc(C(F)(F)F)cc2)c(Cc2ccc(C(F)(F)F)cc2)c1)(OCC)OCC`, the melting point lay in the range of 124 to 128 °C.

`Ic1cc(NC2=NCCN2)cc2[nH]cnc12` yielded a melting point of 180 to 181 °C.

Compound `CC(C)C(OC(C(I)=C(I)I)C(C)C)C(I)=C(I)I` (centres undefined) came in with a melting point of 43.5 to 44 °C.

For `C=Cc1cccc2c(=O)c(C(=O)CCC)c[nH]c12`, the melting point was in the range of 206 to 208 °C.

Regarding `C[Si](C)(C)CCS(=O)(=O)N=S(=O)(c1ccc(N)cc1)C1CC1` (racemic), the melting point fell in the range of 137 to 138 °C.

For `CCCCCCCCCCCCCCCCCCN(CCCCCCCCCCCCCCCCCC)C(=O)c1cc(NS(=O)(=O)c2cnc(Cl)c(OC)c2)c2ccccc2c1O`, the melting point lay within 85 to 87 °C.

In the case of `N=S(=O)(c1ccccc1)c1cccs1` (centres undefined), the melting point came out at 133 °C.

`CCOC(=O)C(C)OC(=O)c1c(I)c(NC(C)=O)c(I)c(C(=O)OC(C)C(=O)OCC)c1I` (centres undefined) came in with a melting point of 160 to 165 °C.

Take `[C-]#[N+]C(C)C(=O)NCC1CC2CC(C1C)C2(C)C` (centres undefined): the melting point fell in the range of 58 to 59 °C.

Consider `NC(=NC(=O)OCc1ccc([N+](=O)[O-])cc1)N(CCSSCCN(C(=O)OCc1ccc([N+](=O)[O-])cc1)C(N)=NC(=O)OCc1ccc([N+](=O)[O-])cc1)C(=O)OCc1ccc([N+](=O)[O-])cc1`, for which the melting point is 165 °C.

`O=C(OCCCOC(=O)C(OCc1ccc(-c2ccc(Cl)cc2)cc1)(C(F)(F)F)C(F)(F)F)C(OCc1ccc(-c2ccc(Cl)cc2)cc1)(C(F)(F)F)C(F)(F)F` came in with a melting point of 93 to 94 °C.
